Measurements reported in patent publication US20090317842A1, “Methods and Tools for The Therapy of Neurodegenerative Pathologies” (EXONHIT THERAPEUTICS SA, priority 2006, published 2009).

Assays:
cortical neurons = test: Neuroprotection against Aβ25-35 amyloid peptide toxicity in neuronal cultures (MTT test); assay type: cell-based, Wistar rat; details: Aβ25-35 33.5 μM
Protocol: Aβ25-35 peptide contains the neurotoxic fragment of the amyloid peptide and is a tool classically used to study the neuroprotective effects of compounds. At the beginning of each experiment, the neuronal cultures aged 7-10 days are changed with fresh culture medium and treated with the etazolate inhibitor compound, six hours before the addition of Aβ25-35 amyloid peptide at a concentration of 33.5 μM In a classical and reproducible manner, this concentration generates 30% to 40% toxicity in neuronal cultures. Several experiments are undertaken to characterize the neuroprotective effect of etazolate. […] In order to determine whether it is the inhibition of sAPPalpha or its production that provides the neuroprotective effect of etazolate against amyloid peptide, a neutralizing anti-sAPPα antibody (3E9 antibody) and alpha secretase inhibitors are respectively used. For the neutralization of sAPPα, 3E9 antibody (5 μg/ml) is added to the cortical cells at the same time as the etazolate. Two alpha secretase inhibitors, the compound Furin Inhibitor […], Sohn J H, Lee […], Mook-Jung I. Furin is an endogenous regulator of alpha-secretase associated APP processing. Biochem Biophys Res Commun. 2006 Oct. 20; 349(2):654-9.) and TAPI (Slack […]. […] Biochem J. 2001 Aug. 1; 357(Pt 3):787-94) are used in pretreatment one hour before the addition of the etazolate. All the treatments are effected at least twice and in at least two different cultures. After an incubation of 48 hours, the toxicity is measured by an MTT test. The results, normalized to the untreated mean, are statistically analyzed by the Wilcoxon test. The significant value is determined at p less than or equal to 0.05. The toxicity is measured by using the MTT test. After incubation with the compounds, MTT is added at a final concentration of 0.5 mg/mL by wells. The plates are then incubated for 30 minutes at 37° C. at night. The medium is drawn off and the crystals are resuspended in 500 μL of DMSO (dimethylsulfoxide). The absorbance at 550 nm is read and the viability percentage is calculated.

sAPPalpha [1] = test: sAPPalpha production in HEK293 cells over-expressing human APP (ELISA and Western blot); assay type: cell-based; details: HEK293 cells stably over-expressing human APP; variable concentrations; 24 hours; FIG. 5
Protocol: HEK293 cells transfected in a stable manner over-expressing human APP were kept in Modified Eagle medium containing Earle salt and supplemented by 10% fetal calf serum (FCS), 2 mM L-glutamine (Sigma, Lyon, France), 1× Nonessential Amino Acids and antibiotics. The cells were treated for 48 hours after spreading variable concentrations of the molecules indicated on 10-cm plates, or with DMSO as a carrier, for 24 hours. The sAPPalpha had been measured by ELISA and Western blot by means of commercially available antibodies.

sAPPalpha [2] = test: sAPPalpha production by cortical neurons (Western blot); assay type: cell-based, Wistar rat; details: 0.2 and 2 μM for 24 h; Western blot densitometry; versus non-treated cultures; FIG. 6
Protocol: The production of sAPPalpha was measured in cortical neurons isolated from 17-day-old Wistar rat embryos. The cells are obtained from cortical structures that are dissected into a solution containing 0.25% trypsin. The dissociated cells are seeded at a density of 500,000 per cm^2 in a Neurobasal medium containing additives (1×B27, 2 mM L-glutamine, 0.6% glucose, antibiotics and antimycotics, as well as 2% horse serum) in culture dishes coated with 6 μg/mL, of polyornithine. The cells are kept at 37° C. and 5% CO2. 24 hours after seeding, the cells are treated with 5 μM AraC (5 cytosine arabinofuranoside) as an antimitotic agent. After 4 days in vitro, half the medium is exchanged for medium without horse serum and the culture is kept for maturation in this medium for 7 to 10 days. The sAPPalpha was measured by Western blot by means of antibodies available commercially after one change of medium and accumulation in fresh medium for 24 hours. Quantification was done by densitometric analyses of scanned autoradiographic images. […] The results presented are the mean±SEM of three independent experiments performed in duplicate and are expressed the form of percentage of the control (non-treated cultures).

sAPPalpha [3] = test: sAPPalpha production in vivo in guinea pig brain (ELISA); details: 10 mg/kg per os once a day for 15 days; guinea pig cortices; versus excipient; p<1E-4; FIG. 7
Protocol: The production of sAPPalpha was studied in vivo in the guinea pig, a physiological model for APP processing in the brain. The etazolate or the excipient (physiological saline solution) was administered to male Hartley albino guinea pigs, weighing 250-270 g at the beginning of the experiment, once a day for 15 consecutive days, per os in a dose of 10 mg/kg. One h after the last administration, the guinea pigs were sacrificed and the brains immediately extracted, frozen in nitrogen and stored at −80° C. The cortices were homogenized at 4° C. in a pH 7.5 20 mM Tris base solution containing 0.2% Triton X-100, 50 μg/mL, gentamicin and a protease inhibitor cocktail. The soluble sAPPalpha was measured by an ELISA test and the results normalized with regard to the quantity of proteins present in the extracts.

Row | Compound | cellular viability (cortical neurons; 0.2 μM etazolate, 48 hours, FIG. 8) [%] | protector effect on neuronal death induced by Aβ25-35 (cortical neurons; co-treatment of neurons, 48 hours, FIG. 8) | sAPPalpha secretion (sAPPalpha [1]) | salting out of sAPPalpha from cortical neurons (sAPPalpha [2]) | quantity of sAPPalpha measured in the brains (sAPPalpha [3]) | effect on the neuroprotection induced by etazolate (cortical neurons; agent added before or with etazolate, cortical neurons, FIGS. 8-10)
1 | CCOC(=O)c1cnc2c(cnn2CC)c1NN=C(C)C [etazolate] | 90 | dose-dependent protector effect | induces sAPPalpha secretion | stimulates the salting out of sAPPalpha | increase by a factor of three | 
2 | TAPI [reference compound] |  |  |  |  |  | inhibited
